# Assay results published in PMC11257039, “VCP activator reverses nuclear proteostasis defects and enhances TDP-43 aggregate clearance in multisystem proteinopathy models” (The Journal of Clinical Investigation, 2024).
# Where “and” joins values, the source holds several entries; their conditions need not be identical. Equal entries are not always repeated.
# Assays:
# [1] = test system: WT HeLa cells expressing TDP-4FL; assay: Immunofluorescence of TDP-4FL inclusion morphology, WT HeLa; assay type: cell-based; conditions: for TDP-4FL inclusion size and morphology upon proteasome inhibition: 4 μM MG132, 1 μM ixazomib or 1 μM epoxomicin, 3 or 6 hours
# Method: HeLa Cells were plated onto glass coverslips and transfected with TDP-4FL using Fugene HD for 24 hours. Cells were fixed with 4% paraformaldehyde (Electron Microscopy Sciences), permeabilized with 0.1% Triton-X (Thermo Fisher Scientific), and blocked with 2% FBS DPBS. Primary antibodies were diluted in 2% FBS DPBS. Cells were stained with 300 nM DAPI, and coverslips were mounted onto glass slides using ProLong Glass Antifade Mountant (Thermo Fisher Scientific). Confocal images were obtained using a Leica TCS SPE laser scanning confocal microscope.
# (A) High power magnification immunofluorescence confocal images of HeLa cells expressing TDP-4FL stained for myc-TDP (green) Scale bar, 5 µm. […]
# (C) Representative confocal microscopy immunofluorescence confocal images of HeLa cells […]
# yellow represent cells that were categorized as anisosome morphology. Nuclei outline in white represent cells that were categorized as aggregate morphology. Cells with approximately more than 50% anisosome inclusions were categorized as anisosome morphology whereas cells with approximately more than 50% aggregate-like inclusions were categorized as aggregate morphology. Binucleate cells were excluded from the total counts. Scale bar, 10 µm.
# (§1) (1 picture or pasted object on this page, not shown here)
# WT VCP + Ufd1/Nploc4 = molecular target: T1, WT VCP + Ufd1/Nploc4 (Mus musculus, UniProt Q01853); assay: Kinase-Glo ATPase assay, WT VCP with UFD1/NPLOC4 (UN); assay type: biochemical; conditions: for ATP consumed: WT VCP with UN
# T1 construct: in the full-length recombinant VCP; His (N); made in house; host or cells: E. coli (VCP: BL21-CodonPlus (DE3)-RIL; UFD1 and NPLOC4: E. coli (DE3), purified by the MD Anderson core)
# T1 sequence (Q01853 whole entry): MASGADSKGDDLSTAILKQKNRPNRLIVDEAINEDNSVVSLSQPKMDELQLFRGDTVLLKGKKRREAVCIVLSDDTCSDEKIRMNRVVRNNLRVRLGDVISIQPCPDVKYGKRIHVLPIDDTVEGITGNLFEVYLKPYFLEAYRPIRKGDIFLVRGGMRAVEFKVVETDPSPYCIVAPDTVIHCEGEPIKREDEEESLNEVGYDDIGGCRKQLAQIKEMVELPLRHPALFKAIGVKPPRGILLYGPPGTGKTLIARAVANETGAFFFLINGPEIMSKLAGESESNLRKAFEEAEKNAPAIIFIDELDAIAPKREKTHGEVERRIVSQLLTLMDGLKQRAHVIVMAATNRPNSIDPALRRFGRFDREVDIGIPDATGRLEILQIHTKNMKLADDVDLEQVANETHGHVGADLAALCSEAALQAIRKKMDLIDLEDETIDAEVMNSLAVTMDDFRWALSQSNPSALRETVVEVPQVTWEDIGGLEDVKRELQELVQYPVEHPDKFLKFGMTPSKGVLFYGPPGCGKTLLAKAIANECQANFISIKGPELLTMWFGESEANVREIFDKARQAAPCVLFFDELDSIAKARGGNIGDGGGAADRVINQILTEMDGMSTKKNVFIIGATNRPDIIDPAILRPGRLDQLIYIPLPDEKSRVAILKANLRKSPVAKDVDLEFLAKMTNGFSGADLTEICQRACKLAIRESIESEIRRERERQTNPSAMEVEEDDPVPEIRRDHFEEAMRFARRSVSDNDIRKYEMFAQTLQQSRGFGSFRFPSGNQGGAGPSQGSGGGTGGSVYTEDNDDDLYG
# T1 sequence (Q92890 whole entry partner): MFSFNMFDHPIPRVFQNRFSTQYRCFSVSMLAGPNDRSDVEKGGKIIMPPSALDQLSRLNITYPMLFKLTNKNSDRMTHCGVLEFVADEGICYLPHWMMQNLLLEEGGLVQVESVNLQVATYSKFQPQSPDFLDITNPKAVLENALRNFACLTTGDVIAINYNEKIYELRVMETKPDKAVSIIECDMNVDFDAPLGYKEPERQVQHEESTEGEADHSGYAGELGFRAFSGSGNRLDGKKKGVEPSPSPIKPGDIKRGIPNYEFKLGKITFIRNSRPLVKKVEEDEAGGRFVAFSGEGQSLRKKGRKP
# T1 sequence (Q8TAT6 whole entry partner): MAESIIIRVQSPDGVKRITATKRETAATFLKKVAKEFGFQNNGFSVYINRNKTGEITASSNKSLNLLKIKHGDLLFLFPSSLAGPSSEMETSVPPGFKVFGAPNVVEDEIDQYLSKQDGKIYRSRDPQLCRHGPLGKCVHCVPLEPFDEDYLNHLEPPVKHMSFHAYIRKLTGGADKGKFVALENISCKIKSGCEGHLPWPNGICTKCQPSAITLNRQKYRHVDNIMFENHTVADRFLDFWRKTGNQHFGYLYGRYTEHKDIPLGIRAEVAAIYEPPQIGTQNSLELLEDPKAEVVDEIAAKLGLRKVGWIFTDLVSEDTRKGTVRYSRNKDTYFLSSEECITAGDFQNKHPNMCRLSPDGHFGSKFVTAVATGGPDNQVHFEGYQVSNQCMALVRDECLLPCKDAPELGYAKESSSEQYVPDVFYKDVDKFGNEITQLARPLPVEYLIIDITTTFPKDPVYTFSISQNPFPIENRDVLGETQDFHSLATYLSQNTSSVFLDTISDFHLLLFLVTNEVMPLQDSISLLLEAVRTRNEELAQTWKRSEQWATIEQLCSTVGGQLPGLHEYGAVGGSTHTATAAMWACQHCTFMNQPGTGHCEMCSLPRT
# Method: (§2) Experiments with varied activator concentration and screening were measured using the Kinase-Glo Luminescent Kinase Assay (Promega). Reactions were incubated at 25°C for 1 hour then reduced to 4°C in a thermocycler consisting of 50 nM of recombinant VCP with or without 50 nM UFD1/NPLOC4 in 50 uL ATPase buffer (25 mM HEPES, pH 7.5, 100 mM NaCl, 10 mM MgCl2) at 2% DMSO with 62.5 μM ATP and a range of activator concentrations (Gibco, Sigma-Aldrich). Equal volumes of reaction and Kinase-Glo reagent were incubated for 20 minutes at room temperature in a 96 well white flat bottom plate (Corning). Luminescence was measured in a microplate reader (Spark 20M, Tecan).
# (§3) Experiments with varied compound concentration were fit to a 3-parameter dose curve with asymmetric profile likelihood 95% confidence intervals in GraphPad Prism 9 (GraphPad). Experiments with varied ATP concentration were fit to a Michaelis-Menten model with asymmetric profile likelihood 95% confidence intervals. Significance was determined for experiments with fixed compound or fixed ATP concentration using a linear mixed-effects model.
# R155H VCP = molecular target: T2, R155H VCP (Mus musculus, UniProt Q01853, R155H); assay: MESG-PNP ATPase assay, recombinant R155H VCP; assay type: biochemical; conditions: VCP Mutation R155H; replicate values
# T2 construct: in the full-length recombinant VCP; His (N); made in house; host or cells: Escherichia coli BL21-CodonPlus (DE3)-RIL
# T2 sequence (Q01853 whole entry R155H): as the sequence (Q01853 whole entry) above, with R155H counted along it
# Method: (§4) All other experiments were performed using the EnzCheck phosphatase assay kit (Molecular Probes). ATPase activity was measured in a 96-well flat bottom plate (Thermo Fisher Scientific). 50 nM VCP was incubated in 100 μL ATPase buffer with 2% DMSO with 25 μM compound and various ATP concentrations. The absorbance at 360 ± 5 nm was measured for more than 15 minutes at 25°C. Phosphate release was quantified based on a phosphate standard curve performed on the same plate. Initial enzyme velocity was determined by fitting the linear portion of the data to a linear regression model.
# (§5) Figure S8. VCP activators variable effect on ATPase activity of MSP associated mutations in recombinant VCP. ATPase activity of 50 nM recombinant VCP protein was measured using an MESG-PNP assay upon treatment with 25 μM compound versus 2% DMSO control at 1mM ATP for WT (also shown in Fig. 5c), A232E, R155H, and R159H (n=3 with 3 technical replicated per experiment; points are expressed as beta ± SE, linear effects model: *P<0.05,**P<0.01; ***P<0.001; ****P<0.0001).
# recombinant WT VCP [2] = molecular target: T3, recombinant WT VCP (Mus musculus, UniProt Q01853); assay: Kinase-Glo ATPase assay, recombinant WT VCP; assay type: biochemical; conditions: for ATP consumed: WT VCP no UN
# T3 construct: in the full-length recombinant VCP; His (N); made in house; host or cells: Escherichia coli BL21-CodonPlus (DE3)-RIL
# T3 sequence (Q01853 whole entry): as the sequence (Q01853 whole entry) above
# Method: as §2, §3
# luciferase = assay: Luciferase counter assay: Kinase-Glo with 62.5 μM ATP without recombinant VCP; assay type: biochemical; conditions: for measured ATP consumed (nmol) without VCP: replicate values
# Method: as §2
# (A-D) Measured ATP as determined by a Kinase-Glo assay of 62.5μM ATP in the presence of increasing concentrations of compound without recombinant VCP present. (for all panels: n=3 with 4 technical replicates per experiment, points are expressed as beta ± SE, linear mixed effects model, P>0.05 for each […]
# as §1
# A232E VCP = molecular target: T4, A232E VCP (Mus musculus, UniProt Q01853, A232E); assay: MESG-PNP ATPase assay, recombinant A232E VCP; assay type: biochemical; conditions: VCP Mutation A232E; replicate values
# T4 construct: in the full-length recombinant VCP; His (N); made in house; host or cells: Escherichia coli BL21-CodonPlus (DE3)-RIL
# T4 sequence (Q01853 whole entry A232E): as the sequence (Q01853 whole entry) above, with A232E counted along it
# Method: as §4, §5
# recombinant WT VCP [3] = molecular target: T3, recombinant WT VCP; assay: MESG-PNP (EnzCheck) phosphate release ATPase assay, WT VCP; assay type: biochemical; conditions: for ATPase activity v0/ET: 25 μM compound, replicate experiments
# Method: as §4, §3
# R159H VCP = molecular target: T5, R159H VCP (Mus musculus, UniProt Q01853, R159H); assay: MESG-PNP ATPase assay, recombinant R159H VCP; assay type: biochemical; conditions: VCP Mutation R159H; replicate values
# T5 construct: in the full-length recombinant VCP; His (N); made in house; host or cells: Escherichia coli BL21-CodonPlus (DE3)-RIL
# T5 sequence (Q01853 whole entry R159H): as the sequence (Q01853 whole entry) above, with R159H counted along it
# Method: as §4, §5
# [4] = test system: WT HeLa cells expressing GFP-TDP-4FL; assay: Flow cytometry of GFP-TDP-4FL integrated fluorescence, WT HeLa; assay type: cell-based; conditions: for Integrated Fluorescence WT (Normalized to CHX): replicate values
# Method: Drug treatments were performed on neurons 7 days after lentiviral transduction and 14 days after neuronal induction. HeLa cells were collected using trypsin and pelleted at 1000g for 3 minutes. Cell pellets were resuspended in colorless DMEM (Invitrogen) supplemented with 2% FBS and filtered through a BD tube with cell strainer (BD Biosciences) for flow cytometry analysis on LSR II (BD Biosciences). Data analysis was performed on FlowJo v10 software. Integrated fluorescence intensity was determined by multiplying percent positive GFP and GFP median fluorescence values.
structure (smiles),measurement,setting,value
Cc1cc2c(C(N)=O)cccc2n1-c1nc2c(c(NCc3ccccc3)n1)COCC2 [CB5083],TDP-4FL aggregate formation,[1],no effect on TDP-4FL aggregate formation
same,TDP-4FL inclusion morphology after recovery,[1],residual irregularly shaped intranuclear TDP-4FL aggregates
Clc1ccc2[nH]c3c(N4CCC5(CC4)OCCO5)ncnc3c2c1 [UP158],change in EC50 with UN compared to without UN,WT VCP + Ufd1/Nploc4,significantly increased
same,change in maximum percent activity with UN compared to without UN,WT VCP + Ufd1/Nploc4,stayed the same
same,EC50,"WT VCP + Ufd1/Nploc4; WT VCP + Ufd1/Nploc4, 1:1 molar ratio",14.3 µM
same,ATP consumed,WT VCP + Ufd1/Nploc4; 1.56 μM compound,1.283 nmol and 1.271 nmol and 1.261 nmol
same,ATP consumed,WT VCP + Ufd1/Nploc4; 3.13 μM compound,1.368 nmol and 1.194 nmol and 1.381 nmol
same,ATP consumed,WT VCP + Ufd1/Nploc4; 6.25 μM compound,1.593 nmol and 1.386 nmol and 1.366 nmol
same,ATP consumed,WT VCP + Ufd1/Nploc4; 12.5 μM compound,1.674 nmol and 1.527 nmol and 1.645 nmol
same,ATP consumed,WT VCP + Ufd1/Nploc4; 25 μM compound,1.721 nmol and 1.705 nmol and 1.784 nmol
same,ATP consumed,WT VCP + Ufd1/Nploc4; 50 μM compound,1.865 nmol and 1.744 nmol and 1.853 nmol
same,ATP consumed,WT VCP + Ufd1/Nploc4; 100 μM compound,1.867 nmol and 1.844 nmol and 1.895 nmol
same,"ATPase activity, nmol Pi / nmol VCP / s",R155H VCP,1.189 nmol Pi / nmol VCP / s and 1.361 nmol Pi / nmol VCP / s and 1.473 nmol Pi / nmol VCP / s
same,EC50,"recombinant WT VCP [2]; EC50 (μM) (95% CI), WT VCP without UN, 50 nM VCP, 62.5 μM ATP, 2% DMSO",2.41 µM
same,ATP consumed,recombinant WT VCP [2]; 0.78 μM compound,1.347 nmol and 0.994 nmol and 1.148 nmol
same,ATP consumed,recombinant WT VCP [2]; 1.56 μM compound,1.354 nmol and 1.059 nmol and 1.210 nmol
same,ATP consumed,recombinant WT VCP [2]; 3.13 μM compound,1.498 nmol and 1.151 nmol and 1.481 nmol
same,ATP consumed,recombinant WT VCP [2]; 6.25 μM compound,1.483 nmol and 1.304 nmol and 1.494 nmol
same,ATP consumed,recombinant WT VCP [2]; 12.5 μM compound,1.656 nmol and 1.339 nmol and 1.428 nmol
same,ATP consumed,recombinant WT VCP [2]; 25 μM compound,1.637 nmol and 1.369 nmol and 1.624 nmol
same,ATP consumed,recombinant WT VCP [2]; 50 μM compound,1.715 nmol and 1.360 nmol and 1.703 nmol
same,ATP consumed,recombinant WT VCP [2]; 100 μM compound,1.794 nmol and 1.361 nmol and 1.605 nmol
same,recombinant WT VCP ATPase activity,recombinant WT VCP [2]; in vitro validation of 106 screen hits,significantly increased
same,increase of VCP activity,"recombinant WT VCP [2]; maximum, WT VCP without UN",50%
same,luciferase activity (measured ATP without VCP),"luciferase; 62.5 μM ATP, increasing concentrations of compound",did not inhibit luciferase activity
same,measured ATP consumed (nmol) without VCP,luciferase; compound 6.25 μM,3.401 nmol and 3.236 nmol and 3.539 nmol and 3.366 nmol and 3.357 nmol and 3.469 nmol and 3.543 nmol and 3.577 nmol and 3.421 nmol and 3.118 nmol and 3.388 nmol
same,measured ATP consumed (nmol) without VCP,luciferase; compound 12.5 μM,3.307 nmol and 3.430 nmol and 3.284 nmol and 3.618 nmol and 3.378 nmol and 3.515 nmol and 3.417 nmol and 3.480 nmol and 3.503 nmol and 3.589 nmol and 3.525 nmol and 3.323 nmol
same,measured ATP consumed (nmol) without VCP,luciferase; compound 25 μM,3.304 nmol and 3.386 nmol and 3.409 nmol and 3.378 nmol and 3.414 nmol and 3.361 nmol and 3.370 nmol and 3.512 nmol and 3.476 nmol and 3.518 nmol and 3.523 nmol and 3.257 nmol
same,measured ATP consumed (nmol) without VCP,luciferase; compound 50 μM,3.338 nmol and 3.481 nmol and 3.508 nmol and 3.447 nmol and 3.274 nmol and 3.450 nmol and 3.266 nmol and 3.477 nmol and 3.478 nmol and 3.313 nmol and 3.466 nmol and 3.330 nmol
same,measured ATP consumed (nmol) without VCP,luciferase; compound 100 μM,3.162 nmol and 3.374 nmol and 3.402 nmol and 3.401 nmol and 3.130 nmol and 3.262 nmol and 3.295 nmol and 3.438 nmol and 3.458 nmol and 3.582 nmol and 3.728 nmol and 3.332 nmol
same,"ATPase activity, nmol Pi / nmol VCP / s",A232E VCP,1.493 nmol Pi / nmol VCP / s and 1.756 nmol Pi / nmol VCP / s and 2.037 nmol Pi / nmol VCP / s
same,kcat (nmol Pi / nmol VCP / s) (95% CI),recombinant WT VCP [3]; 25 μM activator,"0.356 (0.320, 0.396) nmol Pi / nmol VCP / s"
same,increase in kcat,"recombinant WT VCP [3]; 25 μM activator, versus DMSO",more than 50%
same,ATPase activity v0/ET,recombinant WT VCP [3]; [ATP] 62.5 μM,0.191 nmol Pi / nmol VCP / s and 0.186 nmol Pi / nmol VCP / s and 0.163 nmol Pi / nmol VCP / s
same,ATPase activity v0/ET,recombinant WT VCP [3]; [ATP] 125 μM,0.237 nmol Pi / nmol VCP / s and 0.241 nmol Pi / nmol VCP / s and 0.210 nmol Pi / nmol VCP / s
same,ATPase activity v0/ET,recombinant WT VCP [3]; [ATP] 250 μM,0.277 nmol Pi / nmol VCP / s and 0.260 nmol Pi / nmol VCP / s and 0.266 nmol Pi / nmol VCP / s
same,ATPase activity v0/ET,recombinant WT VCP [3]; [ATP] 500 μM,0.330 nmol Pi / nmol VCP / s and 0.296 nmol Pi / nmol VCP / s and 0.298 nmol Pi / nmol VCP / s
same,ATPase activity v0/ET,recombinant WT VCP [3]; [ATP] 1000 μM,0.372 nmol Pi / nmol VCP / s and 0.331 nmol Pi / nmol VCP / s and 0.333 nmol Pi / nmol VCP / s
same,"ATPase activity, nmol Pi / nmol VCP / s",R159H VCP,1.332 nmol Pi / nmol VCP / s and 1.432 nmol Pi / nmol VCP / s and 1.240 nmol Pi / nmol VCP / s
same,Integrated Fluorescence WT (Normalized to CHX),[4]; 5μM compound with CHX,0.937 and 0.971 and 1.133 and 0.982 and 1.082 and 0.863
same,Integrated Fluorescence WT (Normalized to CHX),[4]; 20μM compound with CHX,1.023 and 1.038 and 1.143 and 1.051 and 0.869 and 0.804
same,clearance of GFP-TDP-4FL aggregates (integrated fluorescence),"[4]; MG132, then CHX with 5 or 20 μM activator",did not have a significant effect
CC[C@H](C)[C@H](NC(=O)[C@H]([C@@H](C)CC)N(C)C(C)=O)C(=O)N[C@H](C(=O)N[C@@H](CC(C)C)C(=O)[C@@]1(C)CO1)[C@@H](C)O [epoxomicin],TDP-4FL inclusion size and morphology upon proteasome inhibition,[1],generating larger TDP-4FL inclusions
CC(C)C[C@H](NC(=O)CNC(=O)c1cc(Cl)ccc1Cl)B(O)O [ixazomib],TDP-4FL inclusion size and morphology upon proteasome inhibition,[1],generating larger TDP-4FL inclusions
